Laboratory results as given in patent US20240409557A1, “5,6-FUSED AND 6,6-FUSED BICYCLIC ALCOHOLS AND ETHERS AND COMPOSITIONS FOR USE AS 15-PROSTAGLANDIN DEHYDROGENASE MODULATORS” (AMGEN INC., priority 2023, published 2024).
pIC50: −log10 of the molar value.

Biological target: T1, human recombinant 15-PGDH (Homo sapiens, UniProt P15428)
T1 sequence (P15428 1-266): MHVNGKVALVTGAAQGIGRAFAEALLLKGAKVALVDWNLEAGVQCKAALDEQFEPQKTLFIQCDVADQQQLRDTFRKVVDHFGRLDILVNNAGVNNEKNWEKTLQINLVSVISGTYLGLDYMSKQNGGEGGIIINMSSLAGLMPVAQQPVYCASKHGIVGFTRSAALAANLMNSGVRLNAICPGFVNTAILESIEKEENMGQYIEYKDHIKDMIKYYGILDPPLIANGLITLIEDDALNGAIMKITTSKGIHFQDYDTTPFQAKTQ
Assay: Recombinant 15-PGDH enzymatic inhibition assay (PGDH-Lumi, NADH signal)
Type: biochemical
Conditions: recombinant 15-PGDH; 15 min pre-incubation, 60 min reaction with PGE2 and NAD+, NADH signal
Experimental: These assays measured 15-PGDH enzymatic activity by quantifying the amount of NADH produced during a 60-minute reaction initiated by the addition of PGE2 and NAD+. Under the conditions of these experiments, the increase of NADH signal upon oxidation of PGE2 and reduction of NAD+ was linearly proportional to 15-PGDH enzymatic activity. The recombinant human, mouse, rat and dog 15-PGDH enzymatic assays were performed in a 25 μL volume of reaction buffer containing 50 mM Tris, pH 7.5, 0.01% Tween-20 and […] DTT in a 384-well microtiter plate. In concentration-response experiments with tested compounds, 22 concentrations from 2-fold serial dilutions in DMSO were pre-incubated with 15-PGDH for 15 minutes at room temperature. Then, PGE2 and β-NAD+ were added to initiate the 15-PGDH reaction. After 60 minutes at room temperature, the reaction was quenched and NADH signal was measured using a microtiter plate reader.
The following data (Table 27-1) provides the IC50 in μM of each compound for inhibiting enzymatic activity of the recombinant 15-PGDH in the assay described above.

Structure (SMILES) | pIC50
Cn1cc2cc(-c3cc(C4CC4)nc4sc(C(O)C5CCC5)cc34)cnc2n1 (stereo not shown) [Compound B7, cyclobutyl(6-cyclopropyl-4-(2-methyl-2H-pyrazolo[3,4-b]pyridin-5-yl)thieno[2,3-b]pyridin-2-yl)methanol] | 7.83
Cn1cc2cc(-c3ccc4cc(CO)sc4n3)cnc2n1 [Compound A1, (6-(2-methyl-2H-pyrazolo[3,4-b]pyridin-5-yl)thieno[2,3-b]pyridin-2-yl)methanol] | 6.80
Cn1ncc2cc(-c3ccc4cc([C@@H](O)C5CCOCC5)sc4n3)ccc21 (single isomer, unassigned) [Compound B34S] | 5.33
CN1CCC(C(O)c2cc3ccc(-c4cnc5nn(C)cc5c4)nc3s2)CC1 (stereo not shown) [Compound B33, (1-methyl-4-piperidinyl)(6-(2-methyl-2H-pyrazolo[3,4-b]pyridin-5-yl)thieno[2,3-b]pyridin-2-yl)methanol] | 7.57
Nc1c(C(O)C2CC(F)(F)C2)sc2nc(-c3cncnc3)ccc12 (stereo not shown) [Compound B71, (3-amino-6-(5-pyrimidinyl)thieno[2,3-b]pyridin-2-yl)(3,3-difluorocyclobutyl)methanol] | 9.13
Cn1cc2cc(-c3cnc4sc([C@H](O)C5CC(F)(F)C5)cc4n3)cnc2n1 [Compound B96R, (R)-(3,3-difluorocyclobutyl)(2-(2-methyl-2H-pyrazolo[3,4-b]pyridin-5-yl)thieno[2,3-b]pyrazin-6-yl)methanol] | 9.36
CCC[C@H](O)c1cc2ccc(-c3cnc4nn(C)cc4c3)cc2s1 (single isomer, unassigned) [Compound B54S] | 6.12
CN(C)c1c(CO)c(-c2cnc3nn(C)cc3c2)nc2sc(CO)cc12 [Compound A2, (4-(dimethylamino)-6-(2-methyl-2H-pyrazolo[3,4-b]pyridin-5-yl)thieno[2,3-b]pyridine-2,5-diyl)dimethanol] | 5.67
Cn1cnc(-c2ccc3cc([C@@H](O)C4CC(F)(F)C4)sc3n2)cc1=O (single isomer, unassigned) [Compound B49S] | 8.03
COCc1cc2c(C3(COC)CCC3)cc(-c3cnc4nn(C)cc4c3)nc2s1 [Compound A4, 5-(2-(methoxymethyl)-4-(1-(methoxymethyl)cyclobutyl)thieno[2,3-b]pyridin-6-yl)-2-methyl-2H-pyrazolo[3,4-b]pyridine] | < 4.00
O[C@H](c1cc2ccc(-c3cnc4[nH]nnc4c3)nc2s1)C1CCOCC1 (single isomer, unassigned) [Compound B44S] | 6.88
CN1CC(C(O)c2cc3ccc(-c4cnc5nn(C)cc5c4)nc3s2)C1 (stereo not shown) [Compound B42, (1-methyl-3-azetidinyl)(6-(2-methyl-2H-pyrazolo[3,4-b]pyridin-5-yl)thieno[2,3-b]pyridin-2-yl)methanol] | 7.89
Cc1nc2ccc(-c3ccc4cc([C@@H](O)C5CC(F)(F)C5)sc4n3)cc2o1 (single isomer, unassigned) [Compound B51S] | 8.18
Cc1cn2cc(-c3ccc4cc([C@@H](O)C5CC(F)(F)C5)sc4n3)ccc2n1 (single isomer, unassigned) [Compound B48S] | 7.93
Cn1ncc2cc(-c3ccc4cc(C(O)C5CCOCC5)sc4n3)ccc21 (stereo not shown) [Compound B34, (6-(1-methyl-1H-indazol-5-yl)thieno[2,3-b]pyridin-2-yl)(tetrahydro-2H-pyran-4-yl)methanol] | 7.68
CN1CCC1C(O)c1cc2ccc(-c3cnc4nn(C)cc4c3)nc2s1 (stereo not shown) [Compound B45] | 8.06
CN1CCCC(C(O)c2cc3ccc(-c4cnc5nn(C)cc5c4)nc3s2)C1 (stereo not shown) [Compound B63] | 7.82
Cn1cc2cc(-c3ccc4cc([C@@H](O)C5CCCC5)sc4c3)cnc2n1 (single isomer, unassigned) [Compound B58S] | 6.95
CC[C@H](O)c1cc2c(C3CC3)cc(-c3cnc4nn(C)cc4c3)nc2s1 (single isomer, unassigned) [Compound B13S] | 7.63
Cn1cc2cc(-c3ccc4cc([C@@H](O)CCC(F)(F)F)sc4c3)cnc2n1 (single isomer, unassigned) [Compound B60S] | 6.51
Cn1ncc2cc(-c3ccc4cc([C@@H](O)C5CCOCC5)sc4n3)cnc21 (single isomer, unassigned) [Compound B35S] | 6.83
[2H][C@@](O)(c1cc2ccc(-c3cnc4nn(C)cc4c3)nc2s1)C1CCOCC1 (single isomer, unassigned) [Compound B66S] | 6.81
CN1CCC(C(O)c2cc3ccc(-c4cnc5nn(C)cc5c4)nc3s2)C1 (stereo not shown) [Compound B62, (6-(2-methyl-2H-pyrazolo[3,4-b]pyridin-5-yl)thieno[2,3-b]pyridin-2-yl)(1-methyl-3-pyrrolidinyl)methanol] | 7.68
Cn1cc2cc(-c3ccc4cc([C@]5(O)CCC5(C)C)sc4n3)cnc2n1 (single isomer, unassigned) [Compound C65S] | 5.70
CC(C)n1ncc2cc(-c3ccc4cc([C@@H](O)C5CC(F)(F)C5)sc4n3)cnc21 (single isomer, unassigned) [Compound B65S] | 7.64

Further lines, results first:

pIC50 | Structure (SMILES)
7.36 | COCCC(C)(O)c1cc2ccc(-c3cnc4nn(C)cc4c3)nc2s1 (stereo not shown) [Compound C1, 4-methoxy-2-(6-(2-methyl-2H-pyrazolo[3,4-b]pyridin-5-yl)thieno[2,3-b]pyridin-2-yl)-2-butanol]
6.65 | Cn1cc2cc(-c3ccc4cc(C(C)(O)C(F)(F)F)sc4n3)cnc2n1 (stereo not shown) [Compound C2, 1,1,1-trifluoro-2-(6-(2-methyl-2H-pyrazolo[3,4-b]pyridin-5-yl)thieno[2,3-b]pyridin-2-yl)-2-propanol]
6.63 | COCC(O)(c1cc2ccc(-c3cnc4nn(C)cc4c3)nc2s1)C(F)(F)F (stereo not shown) [Compound C16, 1,1,1-trifluoro-3-methoxy-2-(6-(2-methyl-2H-pyrazolo[3,4-b]pyridin-5-yl)thieno[2,3-b]pyridin-2-yl)-2-propanol]
7.39 | Cn1cc2cc(-c3ccc4cc(C5(O)CCCC5)sc4n3)cnc2n1 [Compound C19, 1-(6-(2-methyl-2H-pyrazolo[3,4-b]pyridin-5-yl)thieno[2,3-b]pyridin-2-yl)cyclopentanol]
7.07 | Cn1cc2cc(-c3ccc4cc(C5(O)CCOC5)sc4n3)cnc2n1 (stereo not shown) [Compound C20, 3-(6-(2-methyl-2H-pyrazolo[3,4-b]pyridin-5-yl)thieno[2,3-b]pyridin-2-yl)tetrahydro-3-furanol]
5.53 | CN1CCC(O)(c2cc3ccc(-c4cnc5nn(C)cc5c4)nc3s2)CC1 [Compound C7, 1-methyl-4-(6-(2-methyl-2H-pyrazolo[3,4-b]pyridin-5-yl)thieno[2,3-b]pyridin-2-yl)-4-piperidinol]
6.71 | CCC(C)(O)c1cc2ccc(-c3cnc4nn(C)cc4c3)nc2s1 (stereo not shown) [Compound C10, 2-(6-(2-methyl-2H-pyrazolo[3,4-b]pyridin-5-yl)thieno[2,3-b]pyridin-2-yl)-2-butanol]
6.12 | CN1CCCC(O)(c2cc3ccc(-c4cnc5nn(C)cc5c4)nc3s2)C1 (stereo not shown) [Compound C13, 1-methyl-3-(6-(2-methyl-2H-pyrazolo[3,4-b]pyridin-5-yl)thieno[2,3-b]pyridin-2-yl)-3-piperidinol]
7.00 | Cn1cc2cc(-c3ccc4cc(C(C)(O)C5CC5)sc4n3)cnc2n1 (stereo not shown) [Compound C11, 1-cyclopropyl-1-(6-(2-methyl-2H-pyrazolo[3,4-b]pyridin-5-yl)thieno[2,3-b]pyridin-2-yl)ethanol]
